From publication PMC12040169 (PLOS Biology, 2025)

Test: in vitro
Settings: human, hela cells, % viability

Row | Structure (SMILES) | viability at 28.5 h, 10 µM | viability at 28.5 h, 10 µM (bulk resorufin, single well)
1 | COc1ccc(/C=C/C(=O)NCc2ccc(S(N)(=O)=O)cc2)cc1OC [CBK265483] | 91% | 
2 | CCOC(=O)C(Cc1ccccc1)NC(=O)c1cn[nH]c1C (centres unmarked) [CBK305499] | 99.7% | 
3 | COc1cc(OC)c(NC(=O)C(C)Oc2cccc(C)c2)cc1Cl (centres unmarked) [CBK268646] | 107% | 
4 | CCC(Oc1cccc(Cl)c1)C(=O)NN1CCN(C)CC1 (centres unmarked) [CBK268135] | 116% | 
5 | CCN(CC)C(=O)CN1CCC(Oc2cncc(OCC3COc4ccccc4O3)n2)C1 (centres unmarked) [CBK084374] | 102% | 
6 | CC1CCN(Cn2nc(COc3ccccc3)n(-c3ccccc3)c2=S)CC1 [CBK264247] | 97.3% | 
7 | COc1cc(C=C2C(=O)NC(=S)NC2=O)cc(Br)c1OCc1c(C)no[n+]1[O-] [CBK263475] |  | 98.9%
8 | Nc1cccc(-c2nc(NC(=O)c3ccncc3)cnc2-c2ccc(F)c(Cl)c2)c1 [CBK037573] | 114% | 
9 | Cc1cc(C)c(OCCCN2CCCCCC2)c(Cl)c1 [CBK266026G] | 101% | 
10 | CCCCNC(=O)c1ccc2nc(CC)c(N(C)CCC(C)C)n2c1 [CBK145477] | 100% | 
11 | COc1ccc(C(C)C)cc1-c1cn2ccnc2c(NCc2ccco2)n1 [CBK037269] | 98.2% | 
12 | COc1ccc(-c2ccc(C(=O)NCCN3CCOCC3)c(N(C)C(C)=O)n2)cc1 [CBK076545] | 102% | 
13 | S=c1[nH]cnc2sc3c(c12)CCCC3 [CBK027787] | 73.7% | 
14 | COc1cccc(CN2C(=O)COc3ccc(C(=O)c4cccs4)cc32)c1 [CBK286412] | 96.1% | 
15 | Cc1nccn1CC(=O)N1CCCC1(C)C(=O)NC1CCCC1 (centres unmarked) [CBK281539] | 98.7% | 
16 | CN(C)CC(=O)Nc1cc(C(F)(F)F)ccc1Cl [CBK307420] | 87.2% | 
17 | CNC(=O)c1sc2ccccc2c1C1CCN(C(=O)Cc2coc3c(C)c(C)ccc23)C1 (centres unmarked) [CBK285876] | 90.3% | 
18 | Oc1ccc(/C=N/N=C/c2ccc(O)c(O)c2)cc1O [CBK261641] | 95% | 
19 | COc1ccc(C(=O)C2=C(O)C(=O)N(CCN3CCOCC3)C2c2ccc(O)c(OC)c2)c(C)c1 (centres unmarked) [CBK264858] | 88% | 
20 | Cc1nc2c(c(CCC(=O)O)n1)CCCC2 [CBK023157] | 98.4% | 
21 | CO[C@H]1CC[C@H](C(=O)NC(c2ccccc2)c2nccn2C)CC1 (some centres unmarked) [CBK283852] | 93.8% | 
22 | CC(C)(C)n1cc(NC2CCN(c3ccc(C#N)cc3)C2=O)cn1 (centres unmarked) [CBK306445] | 85.7% | 
23 | CC(C)Sc1nnc(N2C(N)=C(C#N)C(c3cccs3)C3=C2CCCC3=O)s1 (centres unmarked) [CBK293989] | 82.8% | 

Row | Structure (SMILES) | viability at 28.5 h, 10 µM | viability at 28.5 h, 10 µM (bulk resorufin, single well)
24 | CC(=O)Nc1ccc(F)c(NC(=O)NCCC2CCCN2C)c1 (centres unmarked) [CBK304661] | 101% | 
25 | COC(=O)c1ccc(-n2cc(-c3cccc(C(F)(F)F)c3)nn2)cc1 [CBK112936] | 90% | 
26 | CCn1cc(C(=O)N2CCCCC2c2nc3cc(C)ccc3[nH]2)cn1 (centres unmarked) [CBK283869] | 84.6% | 
27 | O=C(NC(c1ccc(Cl)cc1)c1cnccn1)C1CCN(C(=O)N2CCOCC2)CC1 (centres unmarked) [CBK059635] | 96.7% | 
28 | CCCn1ccnc1-c1cn(CCc2cc(O)nc(C)n2)nn1 [CBK306675] | 114% | 
29 | CC(C)NC(=O)c1cc(C2CN(C(=O)CCc3ccccc3F)CCO2)nc2ccccc12 (centres unmarked) [CBK285893] | 109% | 
30 | Cc1cccc(NC2(C(F)(F)F)N=C(c3ccccc3)NC2=O)n1 (centres unmarked) [CBK267476] | 92.9% | 
31 | Cn1nc2c(cc1=O)CN(C(=O)c1ccoc1)CC2 [CBK304330] | 119% | 
32 | COc1ncccc1CNC(=O)Cn1ccc(=O)[nH]c1=O [CBK305596] | 99.9% | 
33 | O=C(O)CCNC(=O)/C(=C/c1ccc(Cl)cc1)NC(=O)c1ccccc1 [CBK300484] | 86.5% | 
34 | CCOc1ccc(-n2c(N)c(C(=O)NCc3ccco3)sc2=S)cc1 [CBK265578] | 96.3% | 
35 | C(=N\c1nc2ccccc2n1CCN1CCOCC1)/c1ccc2c(c1)OCO2 [CBK262270] | 109% | 
36 | CCn1cc(C2CN(S(=O)(=O)c3cccc(C(C)C)c3)CCO2)cn1 (centres unmarked) [CBK304227] | 105% | 
37 | CCNc1nc(=S)[nH]c2sc3c(c12)CCC(C)C3 (centres unmarked) [CBK086242] | 89.2% | 
38 | COc1ccc(S(=O)(=O)N(c2ccccc2)C2CCNCC2)cc1OC [CBK165076T] | 73.9% | 
39 | NC(=O)COc1ccc(C2CC(=O)Nc3c(-c4cccc(F)c4)csc32)cc1 (centres unmarked) [CBK294441] | 99.6% | 
40 | N[C@H]1CO[C@H]2[C@@H]1OC[C@@H]2n1cc(-c2ccccc2)nn1 [CBK289502] | 81.6% | 
41 | COc1cc(C(=O)N2CCC3(CC2)CC(=O)c2cc(C)c(C)cc2O3)ccc1C [CBK164202] | 105% | 
42 | CC(NC(=O)C1CCN(CCn2cnc3c2c(=O)n(C)c(=O)n3C)CC1)c1ccccc1 (centres unmarked) [CBK148624] | 99.4% | 
43 | CN1CCC[C@H]1C(=O)N1CCN(C(=O)c2ccco2)CC1 [CBK144449] | 94.5% | 
44 | O=C(CCc1ccccc1)N1CCCC1c1cccc(Cc2ccccc2F)n1 (centres unmarked) [CBK286208] | 118% | 
45 | Cn1nc(C(F)(F)F)c(C#N)c1Oc1ccc(C(C)(C)C)cc1 [CBK007398] | 95.7% | 
46 | Cc1ccc(NC(=O)c2cnc3sc(C)cn3c2=O)cc1 [CBK287711] | 97.8% | 

Row | Structure (SMILES) | viability at 28.5 h, 10 µM | viability at 28.5 h, 10 µM (bulk resorufin, single well)
47 | COc1ccc(/C=N/NC(=O)c2ccc(CN3CCOCC3)cc2)cc1[N+](=O)[O-] [CBK262708] | 93% | 
48 | COc1ccc(CN2CC=C(c3ccc(F)cc3)CC2)cc1OCc1ccccc1 [CBK261853] | 96.1% | 
49 | O=C(c1ccc2[nH]ccc2c1)N1CCC2(CCN(Cc3ccccc3)C2)C1 (centres unmarked) [CBK137146] | 98.5% | 
50 | CC(C)OC(=O)N1CCN(C(=O)c2cn(Cc3cccc(S(C)(=O)=O)c3)nn2)CC1 [CBK160994T] | 88.5% | 
51 | O=C(Cn1nc(-c2ccco2)ccc1=O)Nc1ccccn1 [CBK287985] | 87.4% | 
52 | COc1cc(C(=O)N2CCCC3(CCN(C(=O)c4cc(F)c(F)cc4F)C3)C2)cc(OC)c1OC (centres unmarked) [CBK131563] | 106% | 
53 | COCC(C)NC(=O)Cn1c(-c2ccc(F)cc2)cc2cccnc21 (centres unmarked) [CBK284863] | 113% | 
54 | CC(C)=NOc1ncccc1C#N [CBK007841] | 115% | 
55 | COc1cc(NC(=O)C(c2ccccc2)c2ccccc2)c(C(=O)O)cc1OC [CBK262001] | 90.1% | 
56 | CCOc1nnc(CN(CCC(N)=O)c2ccc(F)cc2)s1 [CBK305536] | 110% | 
57 | O=C(O)C1C2C=CC(C2)C1C(=O)N1CCN(Cc2ccc(Cl)cc2)CC1 (centres unmarked) [CBK270318] | 83.8% | 
58 | CN(C(=O)c1cc(S(=O)(=O)N2CCOCC2)ccc1F)C1CCCCC1 [CBK304580] | 114% | 
59 | CCOC(=O)CN1CC(O)CC1c1cccc(C(F)(F)F)c1 (centres unmarked) [CBK304169] | 97.9% | 
60 | FC(F)(F)c1nc2ccccc2nc1Sc1ccncc1 [CBK093773] | 92.8% | 
61 | COc1ccc(OCc2ncc(C(C)(C)C)o2)c(C(C)=O)c1 [CBK305079] | 115% | 
62 | COC(=O)c1cc(NS(=O)(=O)c2cc(Cl)ccc2Cl)cc(C(=O)OC)c1 [CBK077853] | 105% | 
63 | Cc1ccc(OCc2nc(C#N)c(NCCCN3CCOCC3)o2)cc1 [CBK266423] | 112% | 
64 | NC(=O)C1CCN(Cc2cc3c(cc2[N+](=O)[O-])OCO3)CC1 [CBK261885] | 91.7% | 
65 | N=C(N)SCc1ccc(CSC(=N)N)cc1 [CBK278309C] | 84.5% | 
66 | CS(=O)(=O)c1ccc(Cn2cc(CN3CCC(Sc4ccccn4)CC3)nn2)cc1 [CBK149475] | 98.4% | 
67 | O=C(COC(=O)c1cc(-c2ccc(Cl)cc2)nc2ccccc12)c1cccc([N+](=O)[O-])c1 [CBK293923] | 83% | 
68 | OC1(CN2CCCC2)CCN(Cc2sccc2Cl)CC1 [CBK307491] | 105% | 
69 | Cc1cccc(OCC2CCCN(C(=O)c3cn(C)cn3)C2)c1 (centres unmarked) [CBK307021] | 83.4% | 

Row | Structure (SMILES) | viability at 28.5 h, 10 µM | viability at 28.5 h, 10 µM (bulk resorufin, single well)
70 | COc1ccc(-c2cnc(N)c(N3CCC[C@@H]3CO)n2)c(OC)c1OC [CBK063505] | 98.5% | 
71 | c1ccc(Nc2nccc(C3CCCN(Cc4ccc5[nH]ccc5c4)C3)n2)nc1 (centres unmarked) [CBK286093] | 85.3% | 
72 | CC(=O)Nc1ncc(Cl)s1 [CBK015564] | 108% | 
73 | O=C(Nc1cccnc1)c1cc(S(=O)(=O)N2CCOCC2)ccc1Br [CBK270101] | 92.4% | 
74 | Cc1cccc(-c2nccnc2C2CCCN(C(=O)COc3ccc(F)cc3)C2)c1 (centres unmarked) [CBK286241] | 88.1% | 
75 | COc1ccccc1-c1noc(CN2CCCC(C(F)(F)F)C2)n1 (centres unmarked) [CBK305598] | 93.6% | 
76 | O=C(O)CCSC1=CCS(=O)(=O)c2ccc(Cl)cc21 [CBK013721] | 114% | 
77 | CCCCC12CN3CC(C)(CN(C1)C31C(=O)N(C)c3ccc(C)cc31)C2=O (centres unmarked) [CBK267286] | 96.1% | 
78 | CNc1nc(N)nc(OCC(F)(F)F)n1 [CBK028082] | 89.4% | 
79 | Cc1ccc2nc(NC3=NC(CC(=O)O)C(=O)N3)nc(C)c2c1 (centres unmarked) [CBK218806] | 90.3% | 
80 | Cc1cc(C)c(C)c(S(=O)(=O)Nc2cc(S(=O)(=O)N3CCOCC3)ccc2F)c1C [CBK269698] | 61.9% | 
81 | COC(=O)[C@H]1CN(C(=O)c2cccnc2)C[C@@H]1c1ccc(F)cc1 [CBK283788] | 92.1% | 
82 | NC(=O)C1CCN(C(=S)NC2CC3C=CC2C3)CC1 (centres unmarked) [CBK085970] | 97.4% | 
83 | O=C(O)c1ccccc1C(=O)Nc1ccc(Oc2cccc3ccccc23)cc1 [CBK265131] | 84.9% | 
84 | CCc1ccc(-c2cnccc2-n2ccnc2)cc1 [CBK177151] | 93% | 
85 | O=S(=O)(Cc1ccc(Cl)cc1)Nc1cccc2[nH]ccc12 [CBK153531] | 99.5% | 
86 | COC(=O)c1ccccc1NC(=O)CSc1nc(C)cc(C)n1 [CBK263818] | 96.2% | 
87 | COc1cc(/C=C2/SC(=S)N(CC(=O)O)C2=O)cc(Br)c1OCc1ccccn1 [CBK265598] | 115% | 
88 | O=C(O)c1cccc(CSc2nc3ccccc3o2)c1 [CBK270193] | 91.7% | 
89 | Cc1cccc(C)c1OCC(=O)NC(C)C(=O)O (centres unmarked) [CBK287185] | 86.8% | 
